{
  "source": "patent US20230348564A1",
  "about": "“ANTI-CANCER PROTEINS” (UNICHEM LABORATORIES LTD, priority 2020, published 2023)",
  "key": {"[1]": {"system": "PANC-1", "assay": "Annexin-V staining (flow cytometry)", "format": "cell-based, Human", "conditions": "24 h", "protocol": "(§1) The cell lines were maintained in DMEM+10% FBS (heat inactivated) at 37° C. with 5% CO2, and 95% humidity. Antibiotics Penicillin (100 U/mL) and Streptomycin (100 μg/mL) were added to the medium.\n(§2) The stock solution of recombinant lectin having the amino acid sequence of SEQ ID NO. […] Doxorubicin was used as positive control and stock solution was prepared in DMSO.\n(§3) Cells were counted using hemocytometer and plated in culture plates at the density of 0.4×10^6 cells/well in DMEM+10% FBS in 6-well plates. Cells were incubated overnight to allow the cell recovery and exponential growth. Following overnight incubation, cells were treated with Lectin having the amino acid sequence of SEQ ID NO. 2 in DMEM+0% FBS at concentrations ranging from 2.5 μg/mL to 80 μg/mL. Untreated cells were included as Control group for sample. Cells treated with Doxorubicin were included as Positive Control group. DMSO treated cells were included as control group for Doxorubicin. After treatment, cells were incubated for a time period of 24 h.\n(§4) Following incubation, the pro-apoptotic effect was estimated using Annexin assay kit as follows: Annexin reagent contains Annexin-V+7-AAD stain, which differentially labels apoptotic cells in different phases. Four populations of cells can be determined from the flow cytometric plots as follows: • a) Upper Left (UL)—7-AAD(+)/Annexin(−) or Necrotic cells • b) Upper Right (UR)—7-AAD(+)/Annexin(+) or Late apoptotic cells • c) Lower Left (LL)—7-AAD(−)/Annexin(−) or Viable/non-apoptotic cells • d) Lower Right (LR)—7-AAD(−)/Annexin(+) or Early apoptotic cells\n(§5) Cells were gently harvested into pre-labeled sterile centrifuge tubes and centrifuged at 300×g for 5-7 min. Supernatant were discarded and the pellet was resuspended in 200 μl of fresh culture medium.\n(§6) 100 μl of cell suspension was transferred into pre-labeled sterile centrifuge tubes.\n(§7) 100 μl of Annexin-V reagent was added to each tube and incubated for 30 min at RT in dark.\n(§8) Cells stained for Annexin-V were then transferred into 96-well plates and acquired on flow cytometer (Guava technologies). Percentage of cells in early apoptotic, late apoptotic and necrotic phase were determined.\n(§9) Fold increase in apoptotic cells (treated with Test Items) was determined as compared to Control (untreated cells)."}, "[2]": {"system": "MDA-MB-231", "assay": "Annexin-V staining (flow cytometry)", "format": "cell-based, Human", "conditions": "24 h", "protocol": "as §1, §2, §3, §4, §5, §6, §7, §8, §9"}, "[3]": {"system": "Glioblastoma (LN-18)", "assay": "cytotoxicity in Brain Tumor Cell lines by MTT assay", "format": "cell-based, Human", "conditions": "0.1 Mm-100 μM, 72 h", "protocol": "(§10) The SEQ ID NO. […] Untreated cells were used as control. […] Cells were incubated for 3 h at 37° C."}, "[4]": {"system": "Neuroblastoma (SH-SY5Y)", "assay": "cytotoxicity in Brain Tumor Cell lines by MTT assay", "format": "cell-based, Human", "conditions": "0.1 Mm-100 μM, 72 h", "protocol": "as §10"}, "[5]": {"system": "Glioblastoma (U251MG)", "assay": "cytotoxicity in Brain Tumor Cell lines by MTT assay", "conditions": "0.1 Mm-100 μM, 72 h"}, "[6]": {"system": "PANC-1", "assay": "JC-1 assay, mitochondrial membrane depolarization", "format": "cell-based, Human", "conditions": "16h", "protocol": "(§11) To evaluate the in vitro apoptotic effect of recombinant lectin having the amino acid sequence of SEQ ID NO.2 in MDA-MB-231 (breast cancer) and PANG-1 (pancreatic cancer) cell line by JC-1 assay, an increase in mitochondrial membrane depolarization was used as a marker of apoptosis. […] 2 using JC-1 dye based method. […] The cell lines were grown in Dulbecco's Modified Eagle Medium (DMEM)+10% heat inactivated FBS at 37° C. (95% humidity and 5% CO2). […] Recombinant lectin having the amino acid sequence of SEQ ID NO. 2 was diluted in serum free medium. Doxorubicin was used as positive control and stock solution was prepared in dimethyl sulfoxide (DMSO). […] The cells were then incubated overnight under growth conditions to allow the cell recovery and exponential growth. Cells were treated with the recombinant lectin of SEQ ID NO. […] Following respective treatments the cells in the above plate were incubated for 16h in CO2 incubator at 37° C., 5% CO2 and 95% humidity.\n(§12) After 16h of incubation, the supernatants were discarded and 100 μL of JC1-dye solution (prepared by diluting 1 mM DMSO stock in to 10 μM in 1×PBS) was added to each well. The cells were then incubated with the dye in CO2 incubator at 37° C. for 15 min. After 15 min of incubation, the supernatant was removed and the cells were washed twice with 1×PBS and then 100 μL of 1×PBS was added to each well. Red fluorescence (excitation 550 nm, emission 600 nm) and green fluorescence (excitation 485 nm, emission 535 nm) were measured using Biotek Synergy FIT plate reader. The mitochondrial membrane potential […] was calculated as the ratio of intensity of red fluorescence to intensity of green fluorescence described as follows:\n(§13) ΔΨM=Intensity of red fluorescence/Intensity of green fluorescence\n(§14) The percentage decrease of Red fluorescence/Green fluorescence corresponding to each treatment was calculated using the following formula:\n(§15) Where X=Δψm corresponding to treated cells R=ΔΨM corresponding to control wells."}, "[7]": {"system": "MDA-MB-231", "assay": "JC-1 assay, mitochondrial membrane depolarization", "format": "cell-based, Human", "conditions": "16h", "protocol": "as §11, §12, §13, §14, §15"}},
  "data": [
    {"smiles": "COc1cccc2c1C(=O)c1c(O)c3c(c(O)c1C2=O)C[C@@](O)(C(=O)CO)C[C@@H]3O[C@H]1C[C@H](N)[C@H](O)[C@H](C)O1", "note": "[Doxorubicin, reference compound]", "values": [
      {"measurement": "% Population of cells, LL Annex− 7AAD− Viable", "setting": "[1]; 10 μM", "result": 25.6, "unit": "%"},
      {"measurement": "% Population of cells, LR Annex+ 7AAD− Early apoptotic", "setting": "[1]; 10 μM", "result": 6.0, "unit": "%"},
      {"measurement": "% Population of cells, UL Annex− 7AAD+ Necrotic", "setting": "[1]; 10 μM", "result": 0.5, "unit": "%"},
      {"measurement": "% Population of cells, UR Annex+ 7AAD+ Late apoptotic", "setting": "[1]; 10 μM", "result": 67.9, "unit": "%"},
      {"measurement": "% Population of cells, LL Annex− 7AAD− Viable", "setting": "[1]; 100 μM", "result": 1.3, "unit": "%"},
      {"measurement": "% Population of cells, LR Annex+ 7AAD− Early apoptotic", "setting": "[1]; 100 μM", "result": 1.9, "unit": "%"},
      {"measurement": "% Population of cells, UL Annex− 7AAD+ Necrotic", "setting": "[1]; 100 μM", "result": 0.1, "unit": "%"},
      {"measurement": "% Population of cells, UR Annex+ 7AAD+ Late apoptotic", "setting": "[1]; 100 μM", "result": 96.6, "unit": "%"},
      {"measurement": "% Population of cells, LL Annex− 7AAD− Viable", "setting": "[2]; 10 μM", "result": 0.7, "unit": "%"},
      {"measurement": "% Population of cells, LR Annex+ 7AAD− Early apoptotic", "setting": "[2]; 10 μM", "result": 6.8, "unit": "%"},
      {"measurement": "% Population of cells, UL Annex− 7AAD+ Necrotic", "setting": "[2]; 10 μM", "result": 0.0, "unit": "%"},
      {"measurement": "% Population of cells, UR Annex+ 7AAD+ Late apoptotic", "setting": "[2]; 10 μM", "result": 92.5, "unit": "%"},
      {"measurement": "% Population of cells, LL Annex− 7AAD− Viable", "setting": "[2]; 100 μM", "result": 0.0, "unit": "%"},
      {"measurement": "% Population of cells, LR Annex+ 7AAD− Early apoptotic", "setting": "[2]; 100 μM", "result": 0.0, "unit": "%"},
      {"measurement": "% Population of cells, UL Annex− 7AAD+ Necrotic", "setting": "[2]; 100 μM", "result": 0.0, "unit": "%"},
      {"measurement": "% Population of cells, UR Annex+ 7AAD+ Late apoptotic", "setting": "[2]; 100 μM", "result": 100.0, "unit": "%"},
      {"measurement": "% of cytotoxicity", "setting": "[3]", "result": "6.5%-47.7%"},
      {"measurement": "% of cytotoxicity", "setting": "[4]", "result": "21.7%-61.7%"},
      {"measurement": "% of cytotoxicity", "setting": "[5]", "result": "11.2%-78.6%"},
      {"measurement": "Average Green fluorescence", "setting": "[6]; 0.1 μM", "result": 258.5},
      {"measurement": "Average Red fluorescence", "setting": "[6]; 0.1 μM", "result": 653.7},
      {"measurement": "Percentage decrease in MMP (%)", "setting": "[6]; 0.1 μM", "result": "−21.0", "unit": "%"},
      {"measurement": "Average Green fluorescence", "setting": "[6]; 1 μM", "result": 282.3},
      {"measurement": "Average Red fluorescence", "setting": "[6]; 1 μM", "result": 555.3},
      {"measurement": "Percentage decrease in MMP (%)", "setting": "[6]; 1 μM", "result": 5.9, "unit": "%"},
      {"measurement": "Average Green fluorescence", "setting": "[6]; 10 μM", "result": 208.3},
      {"measurement": "Average Red fluorescence", "setting": "[6]; 10 μM", "result": 350.0},
      {"measurement": "Percentage decrease in MMP (%)", "setting": "[6]; 10 μM", "result": 19.6, "unit": "%"},
      {"measurement": "Average Green fluorescence", "setting": "[6]; 25 μM", "result": 186.3},
      {"measurement": "Average Red fluorescence", "setting": "[6]; 25 μM", "result": 283.0},
      {"measurement": "Percentage decrease in MMP (%)", "setting": "[6]; 25 μM", "result": 27.3, "unit": "%"},
      {"measurement": "Average Green fluorescence", "setting": "[6]; 50 μM", "result": 161.7},
      {"measurement": "Average Red fluorescence", "setting": "[6]; 50 μM", "result": 192.5},
      {"measurement": "Percentage decrease in MMP (%)", "setting": "[6]; 50 μM", "result": 43.0, "unit": "%"},
      {"measurement": "Average Green fluorescence", "setting": "[7]; 0.1 μM", "result": 473.0},
      {"measurement": "Average Red fluorescence", "setting": "[7]; 0.1 μM", "result": 465.3},
      {"measurement": "Percentage decrease in MMP (%)", "setting": "[7]; 0.1 μM", "result": 58.8, "unit": "%"},
      {"measurement": "Average Green fluorescence", "setting": "[7]; 1 μM", "result": 345.5},
      {"measurement": "Average Red fluorescence", "setting": "[7]; 1 μM", "result": 343.3},
      {"measurement": "Percentage decrease in MMP (%)", "setting": "[7]; 1 μM", "result": 58.3, "unit": "%"},
      {"measurement": "Average Green fluorescence", "setting": "[7]; 10 μM", "result": 534.0},
      {"measurement": "Average Red fluorescence", "setting": "[7]; 10 μM", "result": 580.7},
      {"measurement": "Percentage decrease in MMP (%)", "setting": "[7]; 10 μM", "result": 54.4, "unit": "%"},
      {"measurement": "Average Green fluorescence", "setting": "[7]; 25 μM", "result": 336.3},
      {"measurement": "Average Red fluorescence", "setting": "[7]; 25 μM", "result": 376.7},
      {"measurement": "Percentage decrease in MMP (%)", "setting": "[7]; 25 μM", "result": 53.0, "unit": "%"},
      {"measurement": "Average Green fluorescence", "setting": "[7]; 50 μM", "result": 318.0},
      {"measurement": "Average Red fluorescence", "setting": "[7]; 50 μM", "result": 663.7},
      {"measurement": "Percentage decrease in MMP (%)", "setting": "[7]; 50 μM", "result": 12.5, "unit": "%"}
    ]}
  ]
}
